In the supplement of paper PMC10011410:

Experiments:
U-2 OS [1] = experiment: cell painting activity score (Mahalanobis distance from DMSO wells); higher = stronger morphological phenotype; settings: 24 h
Protocol: (§1)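 Cell painting in U-2 OS cells (384-well, about 1,500 cells per well), compound exposure 24 h, usually six 2-fold concentrations from 20 to 0.625 uM (some compounds higher or lower). Relative cell count is the cell number per well relative to DMSO wells. Activity score is the Mahalanobis distance of the morphological profile from DMSO control wells. Mean of four technical replicate plates.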

U-2 OS [2] = experiment: relative cell count vs DMSO (cell painting) (fraction of DMSO control); higher = more cells remaining (less cytotoxic); settings: 24 h
Protocol: as §1

U-2 OS [3] = experiment: AUC of culture confluence over time (live-cell imaging) (AUC (confluence % x time)); higher = more confluent culture (less growth inhibition)
Protocol: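 Live-cell Incucyte imaging of U-2 OS cells in F-12K medium. Compounds were tested mostly at 5, 10 and 20 uM, and cells were imaged every 4 h for up to 60 h. Value is the area under the curve of phase-contrast confluence over time.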

Compound: COc1cc([C@@H]2c3cc4c(cc3[C@@H](O[C@@H]3O[C@@H]5CO[C@@H](C)O[C@H]5[C@H](O)[C@H]3O)[C@H]3COC(=O)[C@H]23)OCO4)cc(OC)c1O
- cell painting activity score (U-2 OS [1]; 0.625 µM): 11.9
- cell painting activity score (U-2 OS [1]; 1.25 µM): 14
- cell painting activity score (U-2 OS [1]; 2.5 µM): 12.9
- cell painting activity score (U-2 OS [1]; 5 µM): 14.6
- cell painting activity score (U-2 OS [1]; 10 µM): 14.4
- cell painting activity score (U-2 OS [1]; 20 µM): 15.2
- relative cell count (U-2 OS [2]; 0.625 µM): 0.661
- relative cell count (U-2 OS [2]; 1.25 µM): 0.635
- relative cell count (U-2 OS [2]; 2.5 µM): 0.568
- relative cell count (U-2 OS [2]; 5 µM): 0.604
- relative cell count (U-2 OS [2]; 10 µM): 0.551
- relative cell count (U-2 OS [2]; 20 µM): 0.536
- AUC of culture confluence over time (U-2 OS [3]; 5 µM): 26.2
- AUC of culture confluence over time (U-2 OS [3]; 10 µM): 24.8
- AUC of culture confluence over time (U-2 OS [3]; 20 µM): 18.3

Compound: CCC(=O)CCCCC[C@@H]1NC(=O)[C@H]2CCCCN2C(=O)[C@H]([C@@H](C)CC)NC(=O)[C@H](Cc2cn(OC)c3ccccc23)NC1=O
- cell painting activity score (U-2 OS [1]; 0.625 µM): 16.3
- cell painting activity score (U-2 OS [1]; 1.25 µM): 16
- cell painting activity score (U-2 OS [1]; 2.5 µM): 16.4
- cell painting activity score (U-2 OS [1]; 5 µM): 16
- cell painting activity score (U-2 OS [1]; 10 µM): 13.2
- cell painting activity score (U-2 OS [1]; 20 µM): 13.1
- relative cell count (U-2 OS [2]; 0.625 µM): 0.946
- relative cell count (U-2 OS [2]; 1.25 µM): 0.821
- relative cell count (U-2 OS [2]; 2.5 µM): 0.617
- relative cell count (U-2 OS [2]; 5 µM): 0.59
- relative cell count (U-2 OS [2]; 10 µM): 0.617
- relative cell count (U-2 OS [2]; 20 µM): 0.553
- AUC of culture confluence over time (U-2 OS [3]; 5 µM): 22.3
- AUC of culture confluence over time (U-2 OS [3]; 10 µM): 21.7
- AUC of culture confluence over time (U-2 OS [3]; 20 µM): 19.6

Compound: COc1cc(=O)oc(/C=C/C=C/C=C/C(C)=C/[C@]2(C)O[C@H](C)[C@](C)(O)[C@H]2O)c1C
- cell painting activity score (U-2 OS [1]; 0.625 µM): 4.29
- cell painting activity score (U-2 OS [1]; 1.25 µM): 4.47
- cell painting activity score (U-2 OS [1]; 2.5 µM): 6.44
- cell painting activity score (U-2 OS [1]; 5 µM): 11.5
- cell painting activity score (U-2 OS [1]; 10 µM): 12.8
- cell painting activity score (U-2 OS [1]; 20 µM): 12.1
- relative cell count (U-2 OS [2]; 0.625 µM): 0.993
- relative cell count (U-2 OS [2]; 1.25 µM): 0.982
- relative cell count (U-2 OS [2]; 2.5 µM): 0.972
- relative cell count (U-2 OS [2]; 5 µM): 0.928
- relative cell count (U-2 OS [2]; 10 µM): 0.826
- relative cell count (U-2 OS [2]; 20 µM): 0.758
- AUC of culture confluence over time (U-2 OS [3]; 5 µM): 34.4
- AUC of culture confluence over time (U-2 OS [3]; 10 µM): 30.9
- AUC of culture confluence over time (U-2 OS [3]; 20 µM): 27.2

Compound: Cc1csc(=NC2CCCCC2)n1/N=C/c1ccc(O)c(O)c1O
- cell painting activity score (U-2 OS [1]; 0.625 µM): 6.78
- cell painting activity score (U-2 OS [1]; 1.25 µM): 7.67
- cell painting activity score (U-2 OS [1]; 2.5 µM): 6
- cell painting activity score (U-2 OS [1]; 5 µM): 5.67
- cell painting activity score (U-2 OS [1]; 10 µM): 5.75
- cell painting activity score (U-2 OS [1]; 20 µM): 7.13
- relative cell count (U-2 OS [2]; 0.625 µM): 1.01
- relative cell count (U-2 OS [2]; 1.25 µM): 1.01
- relative cell count (U-2 OS [2]; 2.5 µM): 0.985
- relative cell count (U-2 OS [2]; 5 µM): 1
- relative cell count (U-2 OS [2]; 10 µM): 1.02
- relative cell count (U-2 OS [2]; 20 µM): 0.405
- AUC of culture confluence over time (U-2 OS [3]; 5 µM): 49.7
- AUC of culture confluence over time (U-2 OS [3]; 10 µM): 53.9
- AUC of culture confluence over time (U-2 OS [3]; 20 µM): 40.5

Compound: Nc1nc(Cl)nc2c1ncn2[C@H]1C[C@H](O)[C@@H](CO)O1
- cell painting activity score (U-2 OS [1]; 0.625 µM): 12.6
- cell painting activity score (U-2 OS [1]; 1.25 µM): 13.3
- cell painting activity score (U-2 OS [1]; 2.5 µM): 13.6
- cell painting activity score (U-2 OS [1]; 5 µM): 14
- cell painting activity score (U-2 OS [1]; 10 µM): 14.8
- cell painting activity score (U-2 OS [1]; 20 µM): 15.2
- relative cell count (U-2 OS [2]; 0.625 µM): 0.638
- relative cell count (U-2 OS [2]; 1.25 µM): 0.588
- relative cell count (U-2 OS [2]; 2.5 µM): 0.583
- relative cell count (U-2 OS [2]; 5 µM): 0.555
- relative cell count (U-2 OS [2]; 10 µM): 0.55
- relative cell count (U-2 OS [2]; 20 µM): 0.539
- AUC of culture confluence over time (U-2 OS [3]; 5 µM): 30.2
- AUC of culture confluence over time (U-2 OS [3]; 10 µM): 34.5
- AUC of culture confluence over time (U-2 OS [3]; 20 µM): 33.3

Compound: CC(C)(C)C(=O)OCOc1cccc2c1C(=O)C1C3C=CC(CC3)C1C2=O (stereo not given)
- cell painting activity score (U-2 OS [1]; 0.625 µM): 5.7
- cell painting activity score (U-2 OS [1]; 1.25 µM): 6.22
- cell painting activity score (U-2 OS [1]; 2.5 µM): 7.75
- cell painting activity score (U-2 OS [1]; 5 µM): 8.44
- cell painting activity score (U-2 OS [1]; 10 µM): 12.8
- cell painting activity score (U-2 OS [1]; 20 µM): 13.5
- relative cell count (U-2 OS [2]; 0.625 µM): 0.973
- relative cell count (U-2 OS [2]; 1.25 µM): 0.963
- relative cell count (U-2 OS [2]; 2.5 µM): 0.986
- relative cell count (U-2 OS [2]; 5 µM): 0.929
- relative cell count (U-2 OS [2]; 10 µM): 0.787
- relative cell count (U-2 OS [2]; 20 µM): 0.554
- AUC of culture confluence over time (U-2 OS [3]; 5 µM): 37.6
- AUC of culture confluence over time (U-2 OS [3]; 10 µM): 26.3
- AUC of culture confluence over time (U-2 OS [3]; 20 µM): 20

Compound: CCCCc1c(-c2ccc(OC)cc2)[nH]c2nccnc12
- cell painting activity score (U-2 OS [1]; 0.625 µM): 4.99
- cell painting activity score (U-2 OS [1]; 1.25 µM): 3.58
- cell painting activity score (U-2 OS [1]; 2.5 µM): 6.25
- cell painting activity score (U-2 OS [1]; 5 µM): 6.12
- cell painting activity score (U-2 OS [1]; 10 µM): 8.25
- cell painting activity score (U-2 OS [1]; 20 µM): 8.09
- relative cell count (U-2 OS [2]; 0.625 µM): 1.01
- relative cell count (U-2 OS [2]; 1.25 µM): 0.952
- relative cell count (U-2 OS [2]; 2.5 µM): 0.968
- relative cell count (U-2 OS [2]; 5 µM): 0.949
- relative cell count (U-2 OS [2]; 10 µM): 0.927
- relative cell count (U-2 OS [2]; 20 µM): 0.624
- AUC of culture confluence over time (U-2 OS [3]; 5 µM): 53.2
- AUC of culture confluence over time (U-2 OS [3]; 10 µM): 47.6
- AUC of culture confluence over time (U-2 OS [3]; 20 µM): 52.7

Compound: CCN(CC)Cc1ccc2cc(COC(=O)Nc3ccc(C(=O)NO)cc3)ccc2c1.Cl
- cell painting activity score (U-2 OS [1]; 0.625 µM): 16.1
- cell painting activity score (U-2 OS [1]; 1.25 µM): 14.9
- cell painting activity score (U-2 OS [1]; 2.5 µM): 15
- cell painting activity score (U-2 OS [1]; 5 µM): 15.6
- cell painting activity score (U-2 OS [1]; 10 µM): 16
- cell painting activity score (U-2 OS [1]; 20 µM): 16.9
- relative cell count (U-2 OS [2]; 0.625 µM): 0.781
- relative cell count (U-2 OS [2]; 1.25 µM): 0.654
- relative cell count (U-2 OS [2]; 2.5 µM): 0.491
- relative cell count (U-2 OS [2]; 5 µM): 0.424
- relative cell count (U-2 OS [2]; 10 µM): 0.403
- relative cell count (U-2 OS [2]; 20 µM): 0.373
- AUC of culture confluence over time (U-2 OS [3]; 5 µM): 16.5
- AUC of culture confluence over time (U-2 OS [3]; 10 µM): 20
- AUC of culture confluence over time (U-2 OS [3]; 20 µM): 18.5

Compound: Oc1ccc2ccccc2c1SSc1c(O)ccc2ccccc12
- cell painting activity score (U-2 OS [1]; 0.625 µM): 5.34
- cell painting activity score (U-2 OS [1]; 1.25 µM): 4.94
- cell painting activity score (U-2 OS [1]; 2.5 µM): 7.79
- cell painting activity score (U-2 OS [1]; 5 µM): 8.22
- cell painting activity score (U-2 OS [1]; 10 µM): 9.14
- cell painting activity score (U-2 OS [1]; 20 µM): 14
- relative cell count (U-2 OS [2]; 0.625 µM): 0.996
- relative cell count (U-2 OS [2]; 1.25 µM): 0.924
- relative cell count (U-2 OS [2]; 2.5 µM): 0.926
- relative cell count (U-2 OS [2]; 5 µM): 0.901
- relative cell count (U-2 OS [2]; 10 µM): 0.812
- relative cell count (U-2 OS [2]; 20 µM): 0.245
- AUC of culture confluence over time (U-2 OS [3]; 5 µM): 44.4
- AUC of culture confluence over time (U-2 OS [3]; 10 µM): 37.5
- AUC of culture confluence over time (U-2 OS [3]; 20 µM): 18
